The source of these data is ChEMBL document CHEMBL1156581, “Polychlorinated compounds with PPAR-gamma agonistic effect from the medicinal fungus Phellinus ribis” (Bioorg Med Chem Lett, 2008).

The source made the active and inactive calls. The calls are words filed in the database; no cut-off is given here.

For one assay, the system named is Bacillus subtilis. Description: Antimicrobial activity against Bacillus subtilis. It counts as functional, organism-based.
Another assay deals with Escherichia coli. Description: Antimicrobial activity against Escherichia coli. In kind it is functional, organism-based.
The test system of a further assay is Staphylococcus aureus. Description: Antimicrobial activity against Staphylococcus aureus. In kind it is functional, organism-based.
Assay [1] deals with T1, Peroxisome proliferator-activated receptor gamma (Homo sapiens) (UniProt P37231).
T1 sequence (whole entry): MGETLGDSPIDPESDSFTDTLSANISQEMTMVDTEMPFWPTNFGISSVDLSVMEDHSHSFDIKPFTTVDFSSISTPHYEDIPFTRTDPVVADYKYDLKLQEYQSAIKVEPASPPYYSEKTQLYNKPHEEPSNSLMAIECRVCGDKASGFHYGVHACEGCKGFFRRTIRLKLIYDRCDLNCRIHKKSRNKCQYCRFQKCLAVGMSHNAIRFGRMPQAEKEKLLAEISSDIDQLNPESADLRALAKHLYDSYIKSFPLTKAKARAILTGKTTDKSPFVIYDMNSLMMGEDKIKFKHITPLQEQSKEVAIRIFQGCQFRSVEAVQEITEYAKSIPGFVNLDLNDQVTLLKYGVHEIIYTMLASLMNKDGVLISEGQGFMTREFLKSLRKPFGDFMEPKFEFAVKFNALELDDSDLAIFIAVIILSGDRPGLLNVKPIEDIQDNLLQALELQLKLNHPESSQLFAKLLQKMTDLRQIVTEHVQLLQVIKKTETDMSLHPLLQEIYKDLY
Description: Agonist activity at PPARgamma expressed in mouse NIH3T3 cells assessed as maximum activation at 10 uM after 16 hrs by reporter gene assay. It counts as functional, cell-based. A general note: Reporter assays use an easily measured gene product as a stand-in for the process of interest.

Assay [2] has as its target T1, Peroxisome proliferator-activated receptor gamma (Homo sapiens). The experiment in a line: Agonist activity at PPARgamma expressed in mouse NIH3T3 cells assessed as maximum activation at 100 uM after 16 hrs by reporter gene assay. It counts as functional, cell-based.

Turning to `COc1c(Cl)c(Cl)c(Oc2c(O)c(Cl)c(OC)c(Cl)c2Oc2c(Cl)c(Cl)c(OC)c(Cl)c2Cl)c(Cl)c1Cl`, the outcome with Bacillus subtilis, in the assay with Escherichia coli and in the assay with Staphylococcus aureus was inactive. The fold change (FC) in assay [1] was determined as 2.

`COc1c(Cl)c(Cl)c(Oc2c(Cl)c(OC)c(Cl)c(Cl)c2Oc2c(O)c(Cl)c(Cl)c(OC)c2Cl)c(Cl)c1Cl`: the outcome with Bacillus subtilis, in the assay on Escherichia coli and in the assay on Staphylococcus aureus was inactive. Moreover, the fold change (FC) in assay [1] stood at 8.5.

On to `COc1c(Cl)c(Cl)c(O)c(Cl)c1Cl`, for which the fold change (FC) in assay [2] came to 8.4.

For the molecule `COc1c(Cl)c(Cl)c(Oc2c(O)c(Oc3c(Cl)c(Cl)c(OC)c(Cl)c3Cl)c(Cl)c(OC)c2Cl)c(Cl)c1Cl`, the outcome in the assay on Bacillus subtilis, in the assay on Escherichia coli and in the assay with Staphylococcus aureus was inactive. Moreover, the fold change (FC) in assay [1] was 2.
